Source: the NIST ThermoML archive (doi:10.1021/acs.jced.7b00107)

Test: molar heat capacity at constant pressure
Settings: 101.33 kPa, Crystal 1

Cl.NC12CC3CC(CC(C3)C1)C2 [1-aminoadamantane hydrochloride]
molar heat capacity at constant pressure [J/K/mol]
Settings | Small (less than 1 g) adiabatic calorimetry | Small sample (50 mg) DSC
196.3 K | 140.9 | –
197.31 K | 141.5 | –
197.81 K | 141.9 | –
199.31 K | 142.8 | –
199.33 K | 142.9 | –
200 K | 143.3 | –
200.81 K | 143.9 | –
201.34 K | 144.3 | –
202.3 K | 144.9 | –
203.36 K | 145.7 | –
203.8 K | 146.1 | –
205.3 K | 147 | –
205.38 K | 147.1 | –
206.8 K | 148 | –
207.4 K | 148.4 | –
208.29 K | 149 | –
209.42 K | 149.8 | –
209.79 K | 150 | –
210 K | 150.2 | –
211.28 K | 151 | –
211.44 K | 151.2 | –
212.77 K | 152.1 | –
213.46 K | 152.6 | –
214.26 K | 153.1 | –
215.49 K | 154.1 | –
215.75 K | 154.2 | –
217.23 K | 155.3 | –
217.51 K | 155.5 | –
218.71 K | 156.2 | –
219.54 K | 156.9 | –
220 K | 157.3 | –
220.19 K | 157.2 | –
221.56 K | 158.4 | –
221.67 K | 158.4 | –
223.43 K | 159.7 | –
223.59 K | 159.8 | –
225.29 K | 161.1 | –
225.62 K | 161.3 | –
227.06 K | 162.3 | –
227.64 K | 162.8 | –
228.83 K | 163.7 | –
229.67 K | 164.3 | –
230 K | 164.5 | –
230.6 K | 165.1 | –
231.7 K | 165.8 | –
232.37 K | 166.3 | –
233.72 K | 167.3 | –
234.13 K | 167.6 | –
235.75 K | 169 | –
235.89 K | 168.9 | –
237.64 K | 170.4 | –
237.78 K | 170.3 | –
239.4 K | 171.9 | –
239.81 K | 172.1 | –
240 K | 171.8 | –
241.15 K | 173.6 | –
241.84 K | 174.1 | –
242.89 K | 174.2 | –
243.87 K | 174.6 | –
244.64 K | 175.3 | –
245.91 K | 176.1 | –
246.38 K | 176.6 | –
247.94 K | 177.7 | –
248.13 K | 177.9 | –
249.87 K | 179.2 | –
249.97 K | 179.2 | –
250 K | 179.3 | –
251.6 K | 180.5 | –
252 K | 180.7 | –
253.34 K | 181.7 | –
254.03 K | 182.2 | –
255.07 K | 183.1 | –
256.06 K | 183.7 | –
256.8 K | 184.4 | –
258.09 K | 185.3 | –
258.52 K | 185.6 | –
260 K | 186.8 | –
260.12 K | 186.8 | –
260.24 K | 186.9 | –
262.15 K | 188.4 | –
264.19 K | 189.9 | –
266.22 K | 191.4 | –
268.25 K | 193.1 | –
270 K | 194.3 | –
270.28 K | 194.5 | –
272.31 K | 196.1 | –
274.35 K | 197.7 | –
276.38 K | 199.3 | –
278.41 K | 200.9 | –
280 K | 202.1 | –
280.44 K | 202.5 | –
282.47 K | 204 | –
284.51 K | 205.6 | –
286.53 K | 207.1 | –
288.56 K | 208.7 | –
290 K | 209.9 | –
290.6 K | 210.3 | –
292.63 K | 211.9 | –
294.66 K | 213.5 | –
296.69 K | 215 | –
298.15 K | 216.2 | –
298.72 K | 216.6 | –
300 K | 217.6 | –
300.75 K | 218.1 | –
302.78 K | 219.8 | –
304.81 K | 221.3 | –
306.84 K | 222.9 | –
308.88 K | 224.5 | –
310 K | 225.3 | 222.6
310.91 K | 226 | –
311.7 K | – | 223.7
312.94 K | 227.6 | –
313.3 K | – | 224.7
314.98 K | 229.1 | –
315 K | – | 226.1
316.6 K | – | 227.2
317.01 K | 230.8 | –
318.2 K | – | 228.5
319.04 K | 232.3 | –
319.9 K | – | 229.5
320 K | 233 | –
321.08 K | 233.9 | –
321.5 K | – | 230.9
323.1 K | – | 231.9
323.11 K | 235.4 | –
324.8 K | – | 233.5
325.15 K | 237 | –
326.4 K | – | 234.8
327.19 K | 238.6 | –
328 K | – | 236
329.23 K | 240.1 | –
329.6 K | – | 237.3
330 K | 240.7 | –
331.2 K | – | 238.4
331.26 K | 241.7 | –
332.8 K | – | 239.6
333.3 K | 243.3 | –
334.4 K | – | 241.2
335.34 K | 244.9 | –
336 K | – | 242.3
337.38 K | 246.5 | –
337.6 K | – | 243.3
339.3 K | – | 244.7
339.42 K | 248.1 | –
340 K | 248.6 | –
340.9 K | – | 246.2
341.46 K | 249.6 | –
342.5 K | – | 247.4
343.5 K | 251.3 | –
344.1 K | – | 248.6
345.54 K | 252.9 | –
345.7 K | – | 249.8
347.2 K | – | 251.1
347.58 K | 254.6 | –
348.8 K | – | 252.4
349.62 K | 256.2 | –
350 K | 256.5 | –
350.4 K | – | 253.7
351.66 K | 257.8 | –
352 K | – | 254.9
353.6 K | – | 256.1
353.7 K | 259.4 | –
355.2 K | – | 257.6
355.74 K | 261.1 | –
356.8 K | – | 259
357.78 K | 262.8 | –
358.4 K | – | 260.3
359.82 K | 264.4 | –
360 K | 264.5 | 261.8
361.6 K | – | 263.1
361.86 K | 266 | –
363.2 K | – | 264.7
363.9 K | 267.5 | –
364.8 K | – | 265.8
365.94 K | 269.3 | –
366.3 K | – | 267.1
367.9 K | – | 268.2
367.98 K | 270.9 | –
369.5 K | – | 269.4
370 K | 272.5 | –
371.1 K | – | 270.6
372.7 K | – | 271.9
374.3 K | – | 273.2
375.9 K | – | 274.4
377.4 K | – | 275.5
379 K | – | 276.5
380 K | – | 280
380.6 K | – | 277.8
382.2 K | – | 279
383.8 K | – | 280.3
385.4 K | – | 281.2
386.9 K | – | 282.7
388.5 K | – | 284.1
390 K | – | 288
390.1 K | – | 285
391.7 K | – | 286.5
393.3 K | – | 287.4
394.9 K | – | 288.7
396.4 K | – | 289.9
398 K | – | 291.3
399.6 K | – | 292.6
400 K | – | 296
401.2 K | – | 293.6
402.8 K | – | 294.7
404.4 K | – | 296.2
405.9 K | – | 297.3
407.5 K | – | 298.6
409.1 K | – | 299.8
410 K | – | 304
410.7 K | – | 301
412.3 K | – | 302.3
413.8 K | – | 303.9
415.4 K | – | 305.3
417 K | – | 306.5
418.6 K | – | 307.7
420 K | – | 312
420.2 K | – | 308.7
421.7 K | – | 309.9
423.3 K | – | 311.5
424.9 K | – | 312.6
426.5 K | – | 313.6
428.1 K | – | 314.7
429.7 K | – | 315.8
430 K | – | 319
431.2 K | – | 317
432.8 K | – | 318.4
434.4 K | – | 319.9
436 K | – | 321
437.6 K | – | 322.3
439.1 K | – | 323.5
440 K | – | 327
440.7 K | – | 324.8
442.3 K | – | 326
443.9 K | – | 326.9
445.5 K | – | 328
447 K | – | 329.5
448.6 K | – | 330.4
450 K | – | 334
450.2 K | – | 331.6
451.8 K | – | 332.9
453.4 K | – | 334.4
454.9 K | – | 335.7
456.5 K | – | 336.7
458.1 K | – | 337.3
459.7 K | – | 338.7
460 K | – | 342
461.3 K | – | 339.3
462.8 K | – | 340.6
464.4 K | – | 341.7
466 K | – | 343
467.6 K | – | 344.1
469.2 K | – | 345
470 K | – | 349
470.7 K | – | 346.4
